The target in test [1] is T1, SHIP2 (Src homology 2 domain-containing inositol-5-phosphatase 2) (Homo sapiens, UniProt O15357).
T1 construct: gene INPPL1; Recombinant His-tagged human SHIP2 phosphatase domain
T1 sequence (O15357 419-732 limits assumed): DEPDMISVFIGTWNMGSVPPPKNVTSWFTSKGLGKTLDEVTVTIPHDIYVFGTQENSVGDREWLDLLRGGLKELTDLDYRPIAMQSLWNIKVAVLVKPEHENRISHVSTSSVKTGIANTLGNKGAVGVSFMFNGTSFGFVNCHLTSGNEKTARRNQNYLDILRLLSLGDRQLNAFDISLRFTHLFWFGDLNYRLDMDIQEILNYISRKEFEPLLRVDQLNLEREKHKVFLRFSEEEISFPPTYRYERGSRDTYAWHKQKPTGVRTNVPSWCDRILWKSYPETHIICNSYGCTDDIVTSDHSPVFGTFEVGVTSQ
Put plainly: malachite green phosphate assay with PI([…])P3 diC8 on recombinant phosphatase domain. It is filed as biochemical.

Test [2] deals with T2, SHIP1 (Src homology 2 domain-containing inositol-5-phosphatase 1) (Homo sapiens, UniProt Q92835).
T2 construct: gene INPP5D; Recombinant His-tagged human SHIP1 phosphatase domain
T2 sequence (Q92835 399-715 limits assumed): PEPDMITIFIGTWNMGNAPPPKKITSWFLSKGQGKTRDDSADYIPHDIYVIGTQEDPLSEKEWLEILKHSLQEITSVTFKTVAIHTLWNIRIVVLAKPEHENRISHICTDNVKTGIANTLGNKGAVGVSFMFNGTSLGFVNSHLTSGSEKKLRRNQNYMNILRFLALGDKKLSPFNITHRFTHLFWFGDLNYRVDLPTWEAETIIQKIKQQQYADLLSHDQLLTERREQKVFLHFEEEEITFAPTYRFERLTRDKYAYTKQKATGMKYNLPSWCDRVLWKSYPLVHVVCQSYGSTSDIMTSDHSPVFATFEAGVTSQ
The description is as above. The test is classed as biochemical.

Usually IC50 stands for the point on the concentration scale where inhibition reaches its midpoint. As for `O=c1c2ccccc2[se]n1-c1ccccc1` [ebselen], the IC50 in test [1] stood at 0.48 µM; in test [2] it was 1.81 µM.

Values taken from publication PMC8935241, “Ebselen enhances insulin sensitivity and decreases oxidative stress by inhibiting SHIP2 and protects from inflammation in diabetic mice” (International Journal of Biological Sciences, 2022).
